Type in all cases: cell-based
The subject of assay [1] is lysosomal sialic acid transporter mutant human fibroblasts (GM08496). Briefly: Neu5Gc/ManNGc feeding, lysosomal sialic acid transporter mutant fibroblasts GM08496. Conditions: GM08496 (Salla disease) fibroblasts fed 3 mM for 3 days. The source says:
(§1) Cell Lines—Caco-2 cells (human epithelial cells isolated from a primary colon carcinoma), normal human skin fibroblasts (CCD-919-SK) and chinese hamster ovary (CHO-K1) cells were purchased from ATCC (Manassas, Va.) Mutant human skin fibroblasts (GM05520, GM08496 and GM01718) were obtained from the Coriell Institute for Medical Research (Camden, N.J.) Chimpanzee Fred and human […] EBV-transformed lymphoblasts were a gift from Dr. Peter Parham, Stanford University, CA. […]
(§2) Fractionation of the Labeled Cells—Washed cell pellets were sonicated into 500 μL of 20 mM sodium phosphate buffer or 20 mM Tris-HCl, pH 7.5, using 4×15 second pulses of a sonicator cell disrupter, model Some Dismembrator (Fisher Scientific, Hampton, N.J.) at a probe setting of 3. […] The pellet contained <5% of the incorporated sialic acid as determined using a radioactive tracer (data not shown.) The supernatant was therefore considered as the “total homogenate” fraction. A portion (20%) of the “total homogenate” fraction was taken for protein quantification and Sia analysis by DMB derivatization and HPLC analysis (as discussed below.) The remainder was centrifuged at 100,000×g for 1 h. […] All the Sias in these fractions were released with mild acid hydrolysis if necessary and then analyzed by HPLC after DMB derivatization. […]

In assay [2] the test system is normal human skin fibroblasts (WT). Briefly: Neu5Gc/ManNGc feeding experiment, normal human skin fibroblasts. The following applies: normal wild-type (WT) fibroblasts fed 3 mM for 3 days. As for the experimental part:
Cell Culture—Caco-2 cells were propagated in alpha-MEM containing GLUTAMAX™ (Invitrogen, San Diego, Calif.) and a mixture of ribonucleosides and deoxyribonucleosides (Gibco/Invitrogen, San Diego, Calif.) supplemented with 20% FCS. All the fibroblast cell lines and CHO-K1 cells were cultured in the same media supplemented respectively with 15% non-heat inactivated FCS or 10% heat inactivated FCS. Chimpanzee Fred and human […] EBV-transformed lymphoblasts were cultured in RPMI-1640 (Gibco/Invitrogen, San Diego, Calif.) supplemented with 10% heat inactivated FCS or 15% human serum. All of the cultures were maintained at 37° C., 5% CO2 atmosphere. In order to deplete any remaining Neu5Gc from FCS, the cells were split and cultured prior to Neu5Gc feeding experiments for at least 4 days in alpha-MEM supplemented with an adequate percentage of heat-inactivated premium human serum instead of FCS. The cells were then maintained under the same conditions during the whole feeding experiment. The human serum was heat inactivated at 56° C. for 30 min. before use.
Neu5Gc and ManNGc Feeding Experiment—Neu5Ac, Neu5Gc or ManNGc were dried, dissolved in the appropriate media supplemented with heat-inactivated human serum, sterilized using a Spin-X® (Corning Inc., Corning, N.Y.) and then added to the cells. The pH of the media containing Sia was adjusted to neutrality using sterilized 1M NaOH before starting the feeding experiment. Cells were cultured in the presence of up to 3 mM free Sia or ManNGc for 1 or 3 days at 37° C. At the end of the feeding, cells were washed with cold PBS, harvested either by scraping or with 2 mM EDTA for fibroblasts, and washed again with cold PBS prior to fractionation.
Fractionation of the Labeled Cells—Washed cell pellets were sonicated into 500 μL of 20 mM sodium phosphate buffer or 20 mM Tris-HCl, pH 7.5, using 4×15 second pulses of a sonicator cell disrupter, model Some Dismembrator (Fisher Scientific, Hampton, N.J.) at a probe setting of 3. The sonicate was centrifuged at 75×g for 15 min., and the pellet obtained consisted primarily of nuclei and unbroken cells. The pellet contained <5% of the incorporated sialic acid as determined using a radioactive tracer (data not shown.) The supernatant was therefore considered as the “total homogenate” fraction. A portion (20%) of the “total homogenate” fraction was taken for protein quantification and Sia analysis by DMB derivatization and HPLC analysis (as discussed below.) The remainder was centrifuged at 100,000×g for 1 h. The resulting pellet, called the “membrane” fraction, was then resuspended by sonication (15 sec.) in 200 μl of sodium acetate buffer, pH 5.5. The 100,000×g supernatant, called the “soluble” fraction was adjusted to 90% ethanol using absolute ice-cold ethanol, and placed overnight at −20° C. The flocculant precipitate, which represents the “soluble protein” fraction, was washed 3 times with 90% ice-cold ethanol and then resuspended in 200 μl of water. […] All the Sias in these fractions were released with mild acid hydrolysis if necessary and then analyzed by HPLC after DMB derivatization. Protein quantification was performed on the total homogenate, membrane and soluble protein fractions by using the BCA protein assay kit from Pierce (Rockford, Ill.) In some experiments, the resulting data obtained for the Sia bound to the membrane fraction and to the soluble proteins were pooled and presented here as a High Molecular Weight (HMW) fraction. […]

Assay [3] deals with lysosomal sialic acid transporter mutant human fibroblasts (GM05520). Briefly: Neu5Gc/ManNGc feeding, lysosomal sialic acid transporter mutant fibroblasts GM05520. The following applies: GM05520 (ISSD) fibroblasts fed 3 mM for 3 days.
Excerpt: as §1, §2

As to `O=C(CO)N[C@@H]1C(O)O[C@H](CO)[C@@H](O)[C@@H]1O` (stereo partly drawn) [ManNGc, N-glycolylmannosamine], the figures for the “percent of Neu5Gc in membrane-bound glycoconjugates” value in assay [1] and in assay [3] were 17% and 18%, respectively. In assay [2], the “percent of Neu5Gc incorporation into membrane-bound glycoconjugates” value is 19%.

These data come from patent US20080166805A1, “Culturing human cells and tissues in an N-glycolylneuraminic acid-free environment” (The Regents of the University of California, priority 2005, published 2008).
